Assay results from patent US4309559A, “Sulphonamides useful as pesticides” (FBC Limited, priority 1977, dated 1982).

Key:
Type in all cases: in vivo
[1] = system: Sugarbeet (Beta vulgaris); test: Post-emergence foliar spray, herbicidal/growth regulant response, sugarbeet; conditions: 168 h, foliar spray 11.2 kg/ha, 7 days, 0=no effect, 100=complete kill, read-out: herbicidal or growth regulant response index
In short: (§1)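 Post-emergence treatment at 11.2 kg/ha (two-week-old seedlings; 22° C., 65-85% relative humidity). Seven-day visual rating relative to untreated plants, where 100 means complete kill.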

Mustard (Sinapis alba) [2] = test: Soil incorporation (attaclay/sand dust), growth regulatory or herbicidal effects, mustard; conditions: 504 h, soil incorporation 26 ppm, 21 days, 0=no effect, 100=complete kill, read-out: growth regulatory or herbicidal effect score
In short: (§2)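 Scores (0-100, where 100 means complete kill) were given by visual assessment against untreated plants after 21 days in a 22° C controlled environment room with 14 h of 13,000 lux light daily. Seeds had been sown into compost containing the attaclay/sand dust formulation at 26 or 130 ppm w/v.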

Peas (Pisum sativum) = test: Post-emergence foliar spray, herbicidal/growth regulant response, peas; conditions: Lathyrus oleraceus, 168 h, foliar spray 11.2 kg/ha, 7 days, 0=no effect, 100=complete kill, read-out: herbicidal or growth regulant response index
In short: as §1

[3] = system: Linseed (Linum usitatissimum); test: Post-emergence foliar spray, herbicidal/growth regulant response, linseed; conditions: 168 h, foliar spray 11.2 kg/ha, 7 days, 0=no effect, 100=complete kill, read-out: herbicidal or growth regulant response index
In short: as §1

Mustard (Sinapis alba) [4] = test: Post-emergence foliar spray, herbicidal/growth regulant response, mustard; conditions: 168 h, foliar spray 11.2 kg/ha, 7 days, 0=no effect, 100=complete kill, read-out: herbicidal or growth regulant response index
In short: as §1

Oat (Avena sativa) = test: Post-emergence foliar spray, herbicidal/growth regulant response, oat; conditions: 168 h, foliar spray 11.2 kg/ha, 7 days, 0=no effect, 100=complete kill, read-out: herbicidal or growth regulant response index
In short: as §1

[5] = system: French beans (Phaseolus vulgaris); test: Post-emergence foliar spray, herbicidal/growth regulant response, French beans; conditions: foliar spray 11.2 kg/ha, 7 days, 0=no effect, 100=complete kill
Description: Seeds of the plant species listed below were sown in anodised aluminium pans, 19 cm long×9.5 cm wide×5 cm deep, containing John Innes I potting compost. They were then watered and placed in a controlled environment room (22° C.; 65-85% relative humidity; 14 hours per day artificial illumination at 13,000 lux). Fourteen days after sowing, the seedlings received a foliar spray of a compound listed below, formulated as a solution in 1:1 by volume aqueous acetone. The concentration of active ingredient and volume of application were adjusted so as to be equivalent to a rate of 11.2 kg/ha in 450 liters per hectare. After seven days growth in the controlled environment room, the plants were visually assessed for any herbicidal or growth regulant response. All differences from the untreated control were scored according to an index where 0=no effect and 100=complete kill.
The product of Example 95 was tested according to the procedure of Examples 49-55.

[6] = system: Ryegrass (Lolium perenne); test: Soil incorporation (attaclay/sand dust), growth regulatory or herbicidal effects, ryegrass; conditions: 504 h, soil incorporation 26 ppm, 21 days, 0=no effect, 100=complete kill, read-out: growth regulatory or herbicidal effect score
In short: as §2

Maize (Zea mays) = test: Soil incorporation (attaclay/sand dust), growth regulatory or herbicidal effects, maize; conditions: 504 h, soil incorporation 26 ppm, 21 days, 0=no effect, 100=complete kill, read-out: growth regulatory or herbicidal effect score
In short: as §2

[7] = system: Crabgrass (Digitaria sanguinalis); test: Pre-emergence soil surface spray, crabgrass; conditions: soil surface spray 2.8 kg/ha, 21 days, 0=no effect, 100=complete kill
In short: (§3)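 Herbicidal or growth regulatory effects were rated on a 0-100 scale after 21 days under 14 hours per day artificial illumination at 22° C. Before emergence, compost in which seeds had been sown received a surface spray of 2.8 kg active ingredient per hectare, applied in 450 liters per hectare.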

[8] = system: Blackgrass (Alopecurus myosuroides); test: Pre-emergence soil surface spray, blackgrass; conditions: soil surface spray 2.8 kg/ha, 21 days, 0=no effect, 100=complete kill
In short: as §3

Oats (Avena sativa) = test: Soil incorporation (attaclay/sand dust), growth regulatory or herbicidal effects, oats; conditions: 504 h, soil incorporation 26 ppm, 21 days, 0=no effect, 100=complete kill, read-out: growth regulatory or herbicidal effect score
In short: as §2

CCCS(=O)(=O)N(c1c(C)cccc1C)C(C)C(=O)OCC (stereo not drawn) [Example 24, N-(1-[ethoxycarbonyl]ethyl)-2',6'-dimethyl-1-propanesulphonanilide]
plant injury at 11200 g/ha [1]: 90%
pest or weed control at 26 µg/mL (Mustard (Sinapis alba) [2]): 100%
pest or weed control at 11200 g/ha (Peas (Pisum sativum)): 20%
pest or weed control at 11200 g/ha [3]: 90%
pest or weed control at 11200 g/ha (Mustard (Sinapis alba) [4]): 100%
plant injury at 11200 g/ha (Oat (Avena sativa)): 30%
herbicidal or growth regulant response index [5]: 100
pest or weed control at 26 µg/mL [6]: 100%
plant injury at 26 µg/mL (Maize (Zea mays)): 60%
growth regulatory or herbicidal effect score [7]: 100
growth regulatory or herbicidal effect score [8]: 100
plant injury at 26 µg/mL (Oats (Avena sativa)): 60%
